Results published in publication PMC7508628, “Targeting the Respiratory Syncytial Virus N^0-P Complex with Constrained α-Helical Peptides in Cells and Mice” (Antimicrobial Agents and Chemotherapy, 2020).
Where a SMILES comes first, the peptide text is derived from it. Bridges are numbered along the chain shown (N, C = ends). [ ]: non-standard residue; d: D form. R8 = C=CCCCCCC[C@@](C)(N)C(=O)O; R5 = C=CCCC[C@@](C)(N)C(=O)O; S5 = C=CCCC[C@](C)(N)C(=O)O

Key:
circular dichroism = conditions: 10 mM phosphate; pH 7.5; 25 °C; 50 uM
rHRSV-mCherry = conditions: read-out: EC50 (half-maximal response inhibitory concentration), inhibition of RSV infection; HEp-2 cells, MOI 0.2, peptides added after 2 h infection, mCherry fluorescence at 48 h postinfection; duplicates
[1] = Circular dichroism spectroscopy, α-helical content; assay type: physicochemical; conditions: CD, 10 mM phosphate buffer pH 7.5, 50 μM peptide, 25°C, calculated from ellipticity at 222 nm; average of three measurements
Method: The α-helical stabilization appeared to be higher for the i, i + 7 staples overall.
The circular dichroism spectra were acquired on a Chirascan spectropolarimeter. The samples were prepared in 10 mM phosphate buffer, pH 7.5, at a peptide concentration of 50 μM. Data were recorded at 25°C by step scan from 180 nm to 260 nm in a 0.5-mm-pathlength quartz cell using 0.2-nm-wavelength increments, a 1-nm bandwidth, and a response time of 1 s. Each spectrum was an average of three measurements and was subtracted from the buffer baseline. The data were converted to per residue molar ellipticity units (θ; in degrees · square centimeters · decimoles^−1 · number of residues^−1) and smoothed using Igor Pro software. Percent helicity was calculated as follows: (100 × CD222)/(C × N × {40,000 × [1 − (2.5/N)]}), where CD222 is the molar ellipticity (θ) at 222 nm (in millidegrees), N is the number of amino acids in the peptide, and C is the peptide molar concentration (in moles per liter).

Row | Structure (SMILES) | helicity (circular dichroism) | EC50 (rHRSV-mCherry) | % helicity [1]
1 | CC[C@H](C)[C@@H]1NC(=O)[C@H](CO)NC(=O)[C@H](CCC(=O)O)NC(=O)[C@H](CC(C)C)NC(=O)[C@H](Cc2ccccc2)NC(=O)[C@](C)(NC(=O)[C@@H](NC(=O)[C@H](C)NC(=O)[C@H](CCCCN)NC(=O)[C@H](CC(N)=O)NC(=O)[C@H](CC(N)=O)NC(=O)[C@H](C)NC(=O)[C@H](CC(=O)O)NC(=O)[C@H](CCC(=O)O)NC(C)=O)[C@@H](C)O)CCCCCCC=CCCC[C@@](C)(C(=O)N[C@@H](CCCCN)C(=O)N[C@@H](Cc2ccccc2)C(=O)N[C@@H](C)C(=O)N[C@@H](CO)C(N)=O)NC(=O)[C@H](CCCCN)NC1=O (Ac-EDANNKAT[R8]FLESIK[S5]KFAS-NH2; staple 9-16) | 96% |  | 
2 | CC[C@H](C)[C@H](NC(=O)[C@H](CO)NC(=O)[C@]1(C)CCCC=CCCC[C@](C)(NC(=O)[C@H](C)NC(=O)[C@H](CCCCN)NC(=O)[C@H](CC(N)=O)NC(=O)[C@H](CC(N)=O)NC(=O)[C@H](C)NC(=O)[C@H](CC(=O)O)NC(=O)[C@H](CCC(=O)O)NC(C)=O)C(=O)N[C@@H](CCCCN)C(=O)N[C@@H](Cc2ccccc2)C(=O)N[C@@H](CC(C)C)C(=O)N1)C(=O)N[C@@H](CCCCN)C(=O)NCC(=O)N[C@@H](CCCCN)C(=O)N[C@@H](Cc1ccccc1)C(=O)N[C@@H](C)C(=O)N[C@@H](CO)C(N)=O (Ac-EDANNKA[S5]KFL[S5]SIKGKFAS-NH2; staple 8-12) | 31% |  | 
3 | CC[C@H](C)[C@H](NC(=O)[C@]1(C)CCCC=CCCCCCC[C@@](C)(NC(=O)[C@H](CC(N)=O)NC(=O)[C@H](CC(N)=O)NC(=O)[C@H](C)NC(=O)[C@H](CC(=O)O)NC(=O)[C@H](CCC(=O)O)NC(C)=O)C(=O)N[C@@H](C)C(=O)N[C@@H]([C@@H](C)O)C(=O)N[C@@H](CCCCN)C(=O)N[C@@H](Cc2ccccc2)C(=O)N[C@@H](CC(C)C)C(=O)N[C@@H](CCC(=O)O)C(=O)N1)C(=O)N[C@@H](CCCCN)C(=O)NCC(=O)N[C@@H](CCCCN)C(=O)N[C@@H](Cc1ccccc1)C(=O)N[C@@H](C)C(=O)N[C@@H](CO)C(N)=O (Ac-EDANN[R8]ATKFLE[S5]IKGKFAS-NH2; staple 6-13) | 36.5% |  | 
4 | CC[C@H](C)[C@H](NC(=O)[C@H](CO)NC(=O)[C@]1(C)CCCC=CCCCCCC[C@@](C)(NC(=O)[C@H](CC(N)=O)NC(=O)[C@H](C)NC(=O)[C@H](CC(=O)O)NC(=O)[C@H](CCC(=O)O)NC(C)=O)C(=O)N[C@@H](CCCCN)C(=O)N[C@@H](C)C(=O)N[C@@H]([C@@H](C)O)C(=O)N[C@@H](CCCCN)C(=O)N[C@@H](Cc2ccccc2)C(=O)N[C@@H](CC(C)C)C(=O)N1)C(=O)N[C@@H](CCCCN)C(=O)NCC(=O)N[C@@H](CCCCN)C(=O)N[C@@H](Cc1ccccc1)C(=O)N[C@@H](C)C(=O)N[C@@H](CO)C(N)=O (Ac-EDAN[R8]KATKFL[S5]SIKGKFAS-NH2; staple 5-12) | 64.6% |  | 
5 | CC[C@H](C)[C@H](NC(=O)[C@H](CO)NC(=O)[C@]1(C)CCCC=CCCC[C@@](C)(NC(=O)[C@@H](NC(=O)[C@H](C)NC(=O)[C@H](CCCCN)NC(=O)[C@H](CC(N)=O)NC(=O)[C@H](CC(N)=O)NC(=O)[C@H](C)NC(=O)[C@H](CC(=O)O)NC(=O)[C@H](CCC(=O)O)NC(=O)CNC(=O)[C@H](Cc2c[nH]cn2)NC(=O)[C@H](Cc2ccccc2)NC(=O)[C@H](CCC(=O)O)NC(C)=O)[C@@H](C)O)C(=O)N[C@@H](Cc2ccccc2)C(=O)N[C@@H](CC(C)C)C(=O)N1)C(=O)N[C@@H](CCCCN)C(=O)N[C@]1(C)CCCC=CCCC[C@@](C)(C(=O)N[C@@H](CO)C(N)=O)NC(=O)[C@H](Cc2ccccc2)NC(=O)[C@H](CCCCN)NC1=O [1c1f] (Ac-EFHGEDANNKAT[R5]FL[S5]SIK[R5]KF[S5]S-NH2; staple 13-16, 20-23) |  | > 100 µM | 39.2%
6 | CC[C@H](C)[C@H](NC(=O)[C@H](CO)NC(=O)[C@H](CCC(=O)O)NC(=O)[C@H](CC(C)C)NC(=O)[C@H](Cc1ccccc1)NC(=O)[C@]1(C)CCCC=CCCC[C@](C)(NC(=O)[C@H](CC(N)=O)NC(=O)[C@H](C)NC(=O)[C@H](CC(=O)O)NC(=O)[C@H](CCC(=O)O)NC(C)=O)C(=O)N[C@@H](CCCCN)C(=O)N[C@@H](C)C(=O)N[C@@H]([C@@H](C)O)C(=O)N1)C(=O)N[C@@H](CCCCN)C(=O)NCC(=O)N[C@@H](CCCCN)C(=O)N[C@@H](Cc1ccccc1)C(=O)N[C@@H](C)C(=O)N[C@@H](CO)C(N)=O [2a] (Ac-EDAN[S5]KAT[S5]FLESIKGKFAS-NH2; staple 5-9) | 17.9% |  | 17.9%
7 | CC[C@H](C)[C@H](NC(=O)[C@H](CO)NC(=O)[C@]1(C)CCCC=CCCC[C@](C)(NC(=O)[C@H](C)NC(=O)[C@H](CCCCN)NC(=O)[C@H](CC(N)=O)NC(=O)[C@H](CC(N)=O)NC(=O)[C@H](C)NC(=O)[C@H](CC(=O)O)NC(=O)[C@H](CCC(=O)O)NC(=O)CNC(=O)[C@H](Cc2c[nH]cn2)NC(=O)[C@H](Cc2ccccc2)NC(=O)[C@H](CCC(=O)O)NC(C)=O)C(=O)N[C@@H](CCCCN)C(=O)N[C@@H](Cc2ccccc2)C(=O)N[C@@H](CC(C)C)C(=O)N1)C(=O)N[C@@H](CCCCN)C(=O)N[C@]1(C)CCCC=CCCC[C@@](C)(C(=O)N[C@@H](CO)C(N)=O)NC(=O)[C@H](Cc2ccccc2)NC(=O)[C@H](CCCCN)NC1=O [2b1f] (Ac-EFHGEDANNKA[S5]KFL[S5]SIK[R5]KF[S5]S-NH2; staple 12-16, 20-23) |  | 41 ± 0.5 µM | 37.6%
8 | CC[C@H](C)[C@H](NC(=O)[C@]1(C)CCCC=CCCC[C@](C)(NC(=O)[C@@H](NC(=O)[C@H](C)NC(=O)[C@H](CCCCN)NC(=O)[C@H](CC(N)=O)NC(=O)[C@H](CC(N)=O)NC(=O)[C@H](C)NC(=O)[C@H](CC(=O)O)NC(=O)[C@H](CCC(=O)O)NC(C)=O)[C@@H](C)O)C(=O)N[C@@H](Cc2ccccc2)C(=O)N[C@@H](CC(C)C)C(=O)N[C@@H](CCC(=O)O)C(=O)N1)C(=O)N[C@@H](CCCCN)C(=O)NCC(=O)N[C@@H](CCCCN)C(=O)N[C@@H](Cc1ccccc1)C(=O)N[C@@H](C)C(=O)N[C@@H](CO)C(N)=O [2c] (Ac-EDANNKAT[S5]FLE[S5]IKGKFAS-NH2; staple 9-13) | 16.8% |  | 16.8%
9 | CC[C@H](C)[C@H](NC(=O)[C@H](CO)NC(=O)[C@]1(C)CCCC=CCCCCCC[C@@](C)(NC(=O)[C@H](CC(N)=O)NC(=O)[C@H](C)NC(=O)[C@H](CC(=O)O)NC(=O)[C@H](CCC(=O)O)NC(=O)CNC(=O)[C@H](Cc2c[nH]cn2)NC(=O)[C@H](Cc2ccccc2)NC(=O)[C@H](CCC(=O)O)NC(C)=O)C(=O)N[C@@H](CCCCN)C(=O)N[C@@H](C)C(=O)N[C@@H]([C@@H](C)O)C(=O)N[C@@H](CCCCN)C(=O)N[C@@H](Cc2ccccc2)C(=O)N[C@@H](CC(C)C)C(=O)N1)C(=O)N[C@@H](CCCCN)C(=O)N[C@]1(C)CCCC=CCCC[C@@](C)(C(=O)N[C@@H](CO)C(N)=O)NC(=O)[C@H](Cc2ccccc2)NC(=O)[C@H](CCCCN)NC1=O [3a1f] (Ac-EFHGEDAN[R8]KATKFL[S5]SIK[R5]KF[S5]S-NH2; staple 9-16, 20-23) |  | 25.3 ± 17.9 µM | 37.7%
10 | CC[C@H](C)[C@H](NC(=O)[C@]1(C)CCCC=CCCCCCC[C@@](C)(NC(=O)[C@H](CC(N)=O)NC(=O)[C@H](CC(N)=O)NC(=O)[C@H](C)NC(=O)[C@H](CC(=O)O)NC(=O)[C@H](CCC(=O)O)NC(=O)CNC(=O)[C@H](Cc2c[nH]cn2)NC(=O)[C@H](Cc2ccccc2)NC(=O)[C@H](CCC(=O)O)NC(C)=O)C(=O)N[C@@H](C)C(=O)N[C@@H]([C@@H](C)O)C(=O)N[C@@H](CCCCN)C(=O)N[C@@H](Cc2ccccc2)C(=O)N[C@@H](CC(C)C)C(=O)N[C@@H](CCC(=O)O)C(=O)N1)C(=O)N[C@@H](CCCCN)C(=O)N[C@]1(C)CCCC=CCCC[C@@](C)(C(=O)N[C@@H](CO)C(N)=O)NC(=O)[C@H](Cc2ccccc2)NC(=O)[C@H](CCCCN)NC1=O [3b1f] (Ac-EFHGEDANN[R8]ATKFLE[S5]IK[R5]KF[S5]S-NH2; staple 10-17, 20-23) |  | > 100 µM | 46.6%
11 | CC[C@H](C)[C@@H]1NC(=O)[C@](C)(NC(=O)[C@H](CCC(=O)O)NC(=O)[C@H](CC(C)C)NC(=O)[C@H](Cc2ccccc2)NC(=O)[C@H](CCCCN)NC(=O)[C@@H](NC(=O)[C@H](C)NC(=O)[C@H](CCCCN)NC(=O)[C@H](CC(N)=O)NC(=O)[C@H](CC(N)=O)NC(=O)[C@H](C)NC(=O)[C@H](CC(=O)O)NC(=O)[C@H](CCC(=O)O)NC(C)=O)[C@@H](C)O)CCCCCCC=CCCC[C@@](C)(C(N)=O)NC(=O)[C@H](C)NC(=O)[C@H](Cc2ccccc2)NC(=O)[C@H](CCCCN)NC(=O)CNC(=O)[C@H](CCCCN)NC1=O [3e] (Ac-EDANNKATKFLE[R8]IKGKFA[S5]-NH2; staple 13-20) | 19.9% |  | 19.9%
12 | CC[C@H](C)[C@H](NC(=O)[C@]1(C)CCCC=CCCCCCC[C@@](C)(NC(=O)[C@H](CC(N)=O)NC(=O)[C@H](CC(N)=O)NC(=O)[C@H](C)NC(=O)[C@]2(C)CCCC=CCCC[C@](C)(NC(=O)[C@H](CCC(=O)O)NC(C)=O)C(=O)N[C@@H](Cc3c[nH]cn3)C(=O)NCC(=O)N[C@@H](CCC(=O)O)C(=O)N2)C(=O)N[C@@H](C)C(=O)N[C@@H]([C@@H](C)O)C(=O)N[C@@H](CCCCN)C(=O)N[C@@H](Cc2ccccc2)C(=O)N[C@@H](CC(C)C)C(=O)N[C@@H](CCC(=O)O)C(=O)N1)C(=O)N[C@@H](CCCCN)C(=O)NCC(=O)N[C@@H](CCCCN)C(=O)N[C@@H](Cc1ccccc1)C(=O)N[C@@H](C)C(=O)N[C@@H](CO)C(N)=O [4c3b] (Ac-E[S5]HGE[S5]ANN[R8]ATKFLE[S5]IKGKFAS-NH2; staple 2-6, 10-17) |  | 39.9 ± 4.5 µM | 34.2%
